Measured values published in US8143263B2, “Therapeutic agents” (Astrazeneca AB, priority 2008, dated 2012).

biological target: T1, recombinant human pancreatic GLK (Homo sapiens, UniProt P35557); experiment: biochemical
T1 sequence (P35557 1-465): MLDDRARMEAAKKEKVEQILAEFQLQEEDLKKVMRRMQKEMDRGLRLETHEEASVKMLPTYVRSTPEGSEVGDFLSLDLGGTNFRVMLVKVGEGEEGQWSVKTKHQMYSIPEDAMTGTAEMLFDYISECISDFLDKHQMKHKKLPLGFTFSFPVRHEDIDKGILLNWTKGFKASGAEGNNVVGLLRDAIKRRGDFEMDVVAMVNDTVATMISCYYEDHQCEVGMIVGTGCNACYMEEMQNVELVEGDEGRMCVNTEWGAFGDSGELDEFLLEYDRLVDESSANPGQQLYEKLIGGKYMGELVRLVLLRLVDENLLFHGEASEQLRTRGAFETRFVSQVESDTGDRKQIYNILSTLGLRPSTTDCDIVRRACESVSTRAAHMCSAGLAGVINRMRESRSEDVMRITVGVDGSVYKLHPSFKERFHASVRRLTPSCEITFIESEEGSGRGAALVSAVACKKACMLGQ

| Structure (SMILES) | EC50 |
| --- | --- |
| C[C@H](CO)OC[C@H](Oc1ncnc2c1cnn2-c1ccccc1Cl)C(=O)Nc1ccc(F)cn1 [Example 245, (2S)-2-[1-(2-chlorophenyl)pyrazolo[3,4-d]pyrimidin-4-yl]oxy-N-(5-fluoro-2-pyridyl)-3-[(1R)-2-hydroxy-1-methyl-ethoxy]propanamide] | 470 nM |
| COC[C@@H](C)OC[C@H](Oc1ncnc2c1cnn2-c1ccccc1Cl)C(=O)Nc1cnc(C)cn1 [Example 155, (2S)-2-(1-(2-chlorophenyl)-1H-pyrazolo[3,4-d]pyrimidin-4-yloxy)-3-((R)-1-methoxypropan-2-yloxy)-N-(5-methylpyrazin-2-yl)propanamide] | 760 nM |
| N#Cc1cccc(Cl)c1-n1ncc2c(O[C@@H](COCCO)C(=O)Nc3ccc(Cl)cn3)ncnc21 [Example 174, (2S)-2-(1-(2-chloro-6-cyanophenyl)-1H-pyrazolo[3,4-d]pyrimidin-4-yloxy)-N-(5-chloropyridin-2-yl)-3-(2-hydroxyethoxy)propanamide] | 230 nM |
| CCOC[C@H](Oc1ncnc2c1cnn2-c1ncccc1Cl)C(=O)Nc1ccc(C(=O)N(C)C)cn1 [Example 147, 6-[[(2S)-2-[1-(3-chloro-2-pyridyl)pyrazolo[4,5-e]pyrimidin-4-yl]oxy-3-ethoxy-propanoyl]amino]-N,N-dimethyl-pyridine-3-carboxamide] | 7800 nM |
| C[C@H](CO)OC[C@H](Oc1ncnc2c1cnn2-c1c(C#N)cccc1C#N)C(=O)Nc1ccc(Cl)cn1 [Example 236, (2S)—N-(5-chloro-2-pyridyl)-2-[1-(2,6-dicyanophenyl)pyrazolo[3,4-d]pyrimidin-4-yl]oxy-3-[(1R)-2-hydroxy-1-methyl-ethoxy]propanamide] | 740 nM |
| COC[C@@H](Oc1ncnc2c1cnn2-c1ccccc1OC)C(=O)Nc1ccc(C)cn1 [Example 5, (R)-3-methoxy-2-{[1-(2-methoxyphenyl)-1H-pyrazolo[3,4-d]pyrimidin-4-yl]oxy}-N-(5-methylpyridin-2-yl)propanamide] | ≥ 100000 nM |
| Cc1ccc(NC(=O)C(CCS(C)(=O)=O)Oc2ncnc3c2cnn3C)nc1 (stereo not shown) [2-(1-methylpyrazolo[4,5-e]pyrimidin-4-yl)oxy-N-(5-methyl-2-pyridyl)-4-methylsulfonyl-butanamide] | > 100000 nM |
| COC[C@@H](C)OC[C@H](Oc1ncnc2c1cnn2-c1ncccc1Cl)C(=O)Nc1ccc(C)cn1 [Example 154, (2S)-2-(1-(3-chloropyridin-2-yl)-1H-pyrazolo[3,4-d]pyrimidin-4-yloxy)-3-((R)-1-methoxypropan-2-yloxy)-N-(5-methylpyridin-2-yl)propanamide] | 1200 nM |
| CC(=O)OCC[C@H](Oc1ncnc2c1cnn2-c1ncccc1Cl)C(=O)Nc1ccc(C)cn1 [Example 159, [(3S)-3-[1-(3-chloropyridin-2-yl)pyrazolo[4,5-e]pyrimidin-4-yl]oxy-4-[(5-methylpyridin-2-yl)amino]-4-oxobutyl]acetate] | 850 nM |
| Cc1ccc(NC(=O)[C@H](COC(C)C)Oc2ncnc3c2cnn3-c2ccncc2C)nc1 [Example 135, (2S)—N-(5-methylpyridin-2-yl)-2-[1-(3-methylpyridin-4-yl)pyrazolo[4,5-e]pyrimidin-4-yl]oxy-3-propan-2-yloxypropanamide] | 5900 nM |
| COCCOCCC(Sc1ncnc2c1cnn2-c1ccccc1Cl)C(=O)Nc1ccc(C)cn1 (stereo not shown) [2-[1-(2-chlorophenyl)pyrazolo[4,5-e]pyrimidin-4-yl]sulfanyl-4-(2-methoxyethoxy)-N-(5-methyl-2-pyridyl)butanamide] | > 100000 nM |
| CC(C)OCC(Oc1ncnc2c1cnn2-c1ccccc1Cl)C(=O)Nc1ncccn1 (stereo not shown) [2-[1-(2-chlorophenyl)pyrazolo[4,5-e]pyrimidin-4-yl]oxy-3-isopropoxy-N-pyrimidin-2-yl-propanamide] | > 100000 nM |
| Cc1ccc(NC(=O)[C@H](CCS(C)(=O)=O)Oc2ncnc3c2cnn3-c2ccccc2Cl)nc1 [Example 161, -(2S)-2-(1-(2-chlorophenyl)-1H-pyrazolo[3,4-d]pyrimidin-4-yloxy)-N-(5-methylpyridin-2-yl)-4-(methylsulfonyl)butanamide] | 610 nM |
| CCOC[C@H](Oc1ncnc2c1cnn2-c1cc(C)ccc1C)C(=O)Nc1ccc(C#N)cn1 [Example 186, (2S)—N-(5-cyanopyridin-2-yl)-2-(1-(2,5-dimethylphenyl)-1H-pyrazolo[3,4-d]pyrimidin-4-yloxy)-3-ethoxypropanamide] | 1800 nM |
| Cc1ccc(NC(=O)[C@H](CO[C@H](C)CO)Oc2ncnc3c2cnn3-c2ncccc2Cl)nc1 [Example 232, (2S)-2-[1-(3-chloro-2-pyridyl)pyrazolo[3,4-d]pyrimidin-4-yl]oxy-3-[(1R)-2-hydroxy-1-methyl-ethoxy]-N-(5-methyl-2-pyridyl)propanamide] | 540 nM |
| Cc1ccc(NC(=O)[C@H](COCCO)Oc2ncnc3c2cnn3-c2cccc(Cl)c2C)nc1 [Example 167, (2S)-2-[1-(3-chloro-2-methylphenyl)pyrazolo[4,5-e]pyrimidin-4-yl]oxy-3-(2-hydroxyethoxy)-N-(5-methylpyridin-2-yl)propanamide] | 1100 nM |

| Structure (SMILES) | EC50 |
| --- | --- |
| CCOC[C@H](Oc1ncnc2c1cnn2-c1ccccc1S(C)(=O)=O)C(=O)Nc1ccc(Cl)cn1 [Example 130, (2S)—N-(5-chloropyridin-2-yl)-3-ethoxy-2-(1-(2-(methylsulfonyl)phenyl)-1H-pyrazolo[3,4-d]pyrimidin-4-yloxy)propanamide] | 1100 nM |
| COCC[C@@H](Oc1ncnc2c1cnn2-c1cccc(OC)c1)C(=O)Nc1ccc(C)cn1 [Example 14, (R)-4-methoxy-2-{[1-(3-methoxyphenyl)-1H-pyrazolo[3,4-d]pyrimidin-4-yl]oxy}-N-(5-methylpyridin-2-yl)butanamide] | ≥ 100000 nM |
| Cc1cnc(NC(=O)[C@H](COC2CCC2)Oc2ncnc3c2cnn3-c2ccccc2S(C)(=O)=O)cn1 [Example 140, (2S)-3-cyclobutoxy-N-(5-methylpyrazin-2-yl)-2-(1-(2-(methylsulfonyl)phenyl)-1H-pyrazolo[3,4-d]pyrimidin-4-yloxy)propanamide] | 1200 nM |
| CC(C)OC[C@H](Oc1ncnc2c1cnn2-c1ccccc1Cl)C(=O)Nc1ccccn1 [Example 118a, (2S)-2-[1-(2-chlorophenyl)pyrazolo[4,5-e]pyrimidin-4-yl]oxy-3-isopropoxy-N-(2-pyridyl)propanamide] | 120 nM |
| Cc1ccc(NC(=O)[C@H](COC(C)C)Oc2ncnc3c2cnn3-c2cccnc2C)nc1 [Example 146, (2S)-3-isopropoxy-N-(5-methyl-2-pyridyl)-2-[1-(2-methyl-3-pyridyl)pyrazolo[4,5-e]pyrimidin-4-yl]oxy-propanamide] | 960 nM |
| Cc1nnc(NC(=O)C(COC(C)C)Oc2ncnc3c2cnn3-c2ccccc2Cl)s1 (stereo not shown) [Example 109, 2-[1-(2-chlorophenyl)pyrazolo[4,5-e]pyrimidin-4-yl]oxy-3-isopropoxy-N-(5-methyl-1,3,4-thiadiazol-2-yl)propanamide] | 3200 nM |
| COC[C@@H](Oc1ncnc2c1cnn2-c1ccccc1Cl)C(=O)Nc1ccc(C)cn1 [Example 2, (R)-2-{[1-(2-chlorophenyl)-1H-pyrazolo[3,4-d]pyrimidin-4-yl]oxy}-3-methoxy-N-(5-methylpyridin-2-yl)propanamide] | ≥ 100000 nM |
| CC(C)OC[C@H](Oc1ncnc2c1cnn2-c1ccccc1Cl)C(=O)Nc1ccc(F)cn1 [Example 112a, (2S)-2-[1-(2-chlorophenyl)pyrazolo[4,5-e]pyrimidin-4-yl]oxy-N-(5-fluoro-2-pyridyl)-3-isopropoxy-propanamide] | 220 nM |
| O=C(Nc1ccc(Cl)cn1)[C@H](COCCO)Oc1ncnc2c1cnn2-c1cccc(Cl)c1Cl [Example 202, (2S)—N-(5-chloropyridin-2-yl)-2-(1-(2,3-dichlorophenyl)-1H-pyrazolo[3,4-d]pyrimidin-4-yloxy)-3-(2-hydroxyethoxy)propanamide] | 340 nM |
| Cc1ccc(NC(=O)[C@H](CCN(C)C)Oc2ncnc3c2cnn3-c2ccccc2Cl)nc1 [Example 47, (2S)-2-{[1-(2-chlorophenyl)-1H-pyrazolo[3,4-d]pyrimidin-4-yl]oxy}-4-(dimethylamino)-N-(5-methylpyridin-2-yl)butanamide] | 1000 nM |
| CCC(C)C(Sc1ncnc2c1cnn2-c1ccccc1Cl)C(=O)Nc1nc(C)cs1 (stereo not shown) [Example 54, 2-{[1-(2-chlorophenyl)-1H-pyrazolo[3,4-d]pyrimidin-4-yl]thio}-3-methyl-N-(4-methyl-1,3-thiazol-2-yl)pentanamide] | 4000 nM |
| O=C(Nc1ccc(F)cn1)[C@H](CN1CC(O)C1)Oc1ncnc2c1cnn2-c1c(Cl)cccc1Cl [Example 230, (2S)-2-[1-(2,6-dichlorophenyl)pyrazolo[3,4-d]pyrimidin-4-yl]oxy-N-(5-fluoro-2-pyridyl)-3-(3-hydroxyazetidin-1-yl)propanamide] | 110 nM |
| Cc1ccc(NC(=O)[C@H](COCCO)Oc2ncnc3c2nnn3-c2ccccc2Cl)nc1 [Example 195, (2S)-2-(3-(2-chlorophenyl)-3H-[1,2,3]triazolo[4,5-d]pyrimidin-7-yloxy)-3-(2-hydroxyethoxy)-N-(5-methylpyridin-2-yl)propanamide] | 2000 nM |
| Cc1cnc(NC(=O)[C@H](COC2CCC2)Oc2ncnc3c2cnn3-c2cccnc2C)cn1 [Example 149, (2S)-3-cyclobutoxy-N-(5-methylpyrazin-2-yl)-2-(1-(2-methylpyridin-3-yl)-1H-pyrazolo[3,4-d]pyrimidin-4-yloxy)propanamide] | 660 nM |
| Cc1c(F)cccc1-n1ncc2c(O[C@@H](COCCO)C(=O)Nc3ccc(C#N)cn3)ncnc21 [Example 168, (2S)—N-(5-cyanopyridin-2-yl)-2-[1-(3-fluoro-2-methylphenyl)pyrazolo[4,5-e]pyrimidin-4-yl]oxy-3-(2-hydroxyethoxy)propanamide] | 3900 nM |
